Test [1] deals with T1, HER-2 kinase (Homo sapiens, UniProt P04626).
T1 construct: Use EGFr/HER-2 chimera/3T3-C7 cell line for this assay; It is expressed in mouse NIH 3T3 clone C7 cells; P00533 (Epidermal growth factor receptor)
Briefly: Cellular HER-2 kinase assay. The format is cell-based. To be noted: read-out: Her2 Kinase IC50.
Procedure: Cellular HER-2 Kinase Assay
This assay is used to measure HER-2 kinase activity in whole cells in an ELISA format.
Fetal Bovine Serum (FBS, GIBCO Catalog #16000-044), heat inactivated in a water bath for 30 min. at 56° C.
Corning 96-well ELISA Plates.
(§1) NUNC 96-well V bottom polypropylene plates.
SUMO 1: monoclonal anti-EGFR antibody (SUGEN, Inc.).
Blocking Buffer: 5% Carnation Instant Milk® in PBS.
Suspend powder in 100 uL of 10 mM HCl. Add 100 uL 10 mM NaOH. Add 800 uL PBS and transfer to an Eppendorf tube, store at −20° C. until ready to use.
Na3VO4. […] Adjust pH to 10. Boil in microwave for one minute (solution becomes clear). Cool to room temperature. Adjust pH to 10. Repeat heating/cooling cycle until pH remains at 10.
Rabbit polyclonal antiserum specific for phosphotyrosine (anti-Ptyr antibody, SUGEN, Inc.).
Affinity purified antiserum, goat anti-rabbit IgG antibody, peroxidase conjugate (Biosource Cat #ALI0404).
30% Hydrogen peroxide solution.
Coat Corning 96 well ELISA plates with SUMO1 at 1.0 ug per well in PBS, 100 ul final volume/well. Store overnight at 4° C.
On day of use, remove coating buffer and wash plate 3 times with dH2O and once with TBST buffer. All washes in this assay should be done in this manner, unless otherwise specified.
Add 100 ul of Blocking Buffer to each well. Incubate plate, with shaking, for 30 min. at room temperature. Just prior to use, wash plate.
Use EGFr/HER-2 chimera/3T3-C7 cell line for this assay.
Choose dishes having 80-90% confluence. Collect cells by trypsinization and centrifuge at 1000 rpm at room temperature for 5 min.
Resuspend cells in starve medium and count with trypan blue. Viability above 90% is required. Seed cells in starve medium at a density of 2,500 cells per well, 90 ul per well, in a 96 well microtiter plate. Incubate seeded cells overnight at 37° under 5% CO2.
Start the assay two days after seeding.
Test compounds are dissolved in 4% DMSO. Samples are then further diluted directly on plates with starve-DMEM. Typically, this dilution will be 1:10 or greater.
Incubate under 5% CO2 at 37° C. for 2 hours.
Prepare fresh HNTG* sufficient for 100 ul per well; place on ice.
After 2 hour incubation with test compound, add prepared EGF ligand to cells, 50 ul per well, for a final concentration of 50 nM. Positive control wells receive the same amount of EGF. […] Incubate at 37° C. for 10 min.
Remove test compound, EGF, and DMEM. Wash cells once with PBS.
Transfer HNTG* to cells, 100 ul per well. Place on ice for 5 minutes. Meanwhile, remove blocking buffer from ELISA plate and wash.
Scrape cells from plate with a micropipettor and homogenize cell material by repeatedly aspirating and dispensing the HNTG* lysis buffer. Transfer lysate to a coated, blocked, washed ELISA plate. Or, use a Costar transfer cartridge to transfer lysate to the plate.
Incubate, with shaking, at room temperature for 1 hr.
Remove lysate, wash. Transfer freshly diluted anti-Ptyr antibody (1:3000 in TBST) to ELISA plate, 100 ul per well.
Incubate, with shaking, at room temperature, for 30 min.
Remove anti-Ptyr antibody, wash. Transfer freshly diluted BIOSOURCE antibody to ELISA plate (1:8000 in TBST, 100 ul per well).
Incubate, with shaking, at room temperature for 30 min.
Remove BIOSOURCE antibody, wash. Transfer freshly prepared ABTS/H2O2 solution to ELISA plate, 100 ul per well.
Stop reaction with the addition of 100 ul of 0.2M HCl per well.

For test [2], the target named is T2, GST-Flk1 (Mus musculus, UniProt P35918).
T2 construct: GST-Flk1cd purified from sf9 recombinant baculovirus transformation; host or cells: Sf9 (baculovirus)
T2 sequence (P35918 784-1345 limits assumed): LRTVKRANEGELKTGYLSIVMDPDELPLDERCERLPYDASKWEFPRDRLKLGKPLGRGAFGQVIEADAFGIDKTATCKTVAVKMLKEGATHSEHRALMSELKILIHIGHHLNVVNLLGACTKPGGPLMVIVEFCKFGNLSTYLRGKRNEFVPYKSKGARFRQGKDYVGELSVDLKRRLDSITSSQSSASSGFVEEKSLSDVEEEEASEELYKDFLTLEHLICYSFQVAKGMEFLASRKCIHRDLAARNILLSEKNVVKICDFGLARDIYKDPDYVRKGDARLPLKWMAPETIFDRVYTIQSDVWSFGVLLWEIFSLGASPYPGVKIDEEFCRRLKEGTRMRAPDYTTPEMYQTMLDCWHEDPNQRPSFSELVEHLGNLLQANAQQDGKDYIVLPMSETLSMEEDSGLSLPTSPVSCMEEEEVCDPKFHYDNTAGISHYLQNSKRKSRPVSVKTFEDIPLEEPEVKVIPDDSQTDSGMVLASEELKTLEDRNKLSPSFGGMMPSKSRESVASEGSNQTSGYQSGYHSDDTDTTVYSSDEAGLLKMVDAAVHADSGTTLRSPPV
Briefly: GST-FLK-1 bioassay (bio flkGST). It counts as biochemical.
Procedure: This assay analyzes the tyrosine kinase activity of GST-Flk1 on poly(glu,tyr) peptides.
Preparation of poly(glu,tyr)(pEY) coated assay plates: Coat 2 ug/well of poly(glu,tyr)(pEY) in 100 ul PBS, hold at room temperature for 2 hours or at 4° C. overnight. Cover plates well to prevent evaporation.
When all reagents have dissolved, adjust the pH to 7.2 with HCl. Bring total volume to 1 L with dH2O.
PBST Buffer: to 1 L of PBS Buffer, add 1.0 ml Tween-20.
Adjust pH to 7.2 with HCl. Add 10 g BSA, stir to dissolve. Bring total volume to 1 L with dH2O. Filter to remove particulate matter.
Adjust total volume to 1 L with PBS buffer, filter to remove particulate matter.
GST-Flk1cd purified from sf9 recombinant baculovirus transformation (SUGEN, Inc.).
Add 10 N NaOH until EDTA dissolves. Adjust pH to 8.0. Adjust total volume to 100 ml with dH2O.
Anti-phosphotyrosine monoclonal antibody conjugated to horseradish peroxidase (PY99 HRP, Santa Cruz Biotech).
2,2′-Azinobis(3-ethylbenzthiazoline-6-sulfonic acid (ABTS, Moss, Cat. No. ABST).
Coat Corning 96-well ELISA plates with 2 μg of polyEY peptide in sterile PBS as described in step 3 of Materials and Reagents.
Remove unbound liquid from wells by inverting plate. Wash once with TBST. Pat the plate on a paper towel to remove excess liquid.
Add 100 μl of 1% BSA in PBS to each well. Incubate, with shaking, for 1 hr. at room temperature.
Soak wells with 50 mM HEPES (pH7.5) (150 μl/well).
Dilute test compound with dH2O/4% DMSO to 4 times the desired final assay concentration in 96-well polypropylene plates.
Add 25 μl diluted test compound to ELISA plate. In control wells, place 25 μl of dH2O/4% DMSO.
Add 25 μl 0.5M EDTA to negative control wells.
Dilute GST-Flk1 to 0.005 μg (5 ng)/well with KDB.
Add 50 μl of diluted enzyme to each well.
Incubate, with shaking, for 15 minutes at room temperature.
Wash 3×with TBST and pat plate on paper towel to remove excess liquid.
Incubate, with shaking, for 90 min. at room temperature.
Add 100 μl of room temperature ABTS solution to each well.
Stop reaction by adding 20 μl of 10% SDS to each well.

Test [3] addresses T3, PDGFR-β (Homo sapiens, UniProt P09619).
T3 construct: host or cells: NIH 3T3
The test can be described thus: PDGFR bioassay (bio PDGF). It counts as biochemical.
Procedure: Corning 96-well Elisa plates
28D4C10 monoclonal anti-PDGFR antibody (SUGEN, Inc.).
Blocking Buffer (same as for EGFR bioassay).
PDGFR-β expressing NIH 3T3 cell lysate (SUGEN, Inc.).
Kinase buffer phosphorylation mix: for 10 ml, mix 250 μl 1M TRIS, 200 μl 5M NaCl, 100 μl 1M MnCl2 and 50 μl 100 mM Triton X-100 in enough dH2O to make 10 ml.
as §1
Rabbit polyclonal anti-phosphotyrosine serum (SUGEN, Inc.).
Goat anti-rabbit IgG peroxidase conjugate (Biosource Cat. No. ALI0404).
Hydrogen peroxide, 30% solution.
Coat Corning 96 well ELISA plates with 0.5 μg 28D4C10 in 100 μl PBS per well, store overnight at 4° C.
Remove unbound 28D4C10 from wells by inverting plate to remove liquid. Wash 1×with dH2O. Pat the plate on a paper towel to remove excess liquid.
Add 150 μl of Blocking Buffer to each well. Incubate for 30 min. at room temperature with shaking.
Wash plate 3×with deionized water, then once with TBST. Pat plate on a paper towel to remove excess liquid and bubbles.
Dilute lysate in HNTG (10 μg lysate/100 μl HNTG).
Add 100 μl of diluted lysate to each well. Shake at room temperature for 60 min.
Wash plates as described in Step 4.
Add 80 μl working kinase buffer mix to ELISA plate containing captured PDGFR.
Add 10 μl diluted test compound to ELISA plate. To control wells, add 10 μl TBS+10% DMSO. Incubate with shaking for 30 minutes at room temperature.
Add 10 μl ATP directly to all wells except negative control well (final well volume should be approximately 100 μl with 20 μM ATP in each well.) Incubate 30 minutes with shaking.
Stop reaction by adding 10 μl of EDTA solution to each well.
Wash 4×with deionized water, twice with TBST.
Add 100 μl anti-phosphotyrosine (1:3000 dilution in TBST) per well. Incubate with shaking for 30-45 min. at room temperature.
Incubate with shaking for 30 min. at room temperature.
Add 100 μl of ABTS/H2O2 solution to each well.
Incubate 10 to 30 minutes with shaking. Remove any bubbles.
If necessary stop reaction with the addition of 100 μl 0.2 M HCl per well.

Test [4] deals with T4, EGFR (Homo sapiens, UniProt P00533).
T4 construct: A431 cell lysate (SUGEN, Inc.); host or cells: A431
T4 sequence (P00533 25-1210): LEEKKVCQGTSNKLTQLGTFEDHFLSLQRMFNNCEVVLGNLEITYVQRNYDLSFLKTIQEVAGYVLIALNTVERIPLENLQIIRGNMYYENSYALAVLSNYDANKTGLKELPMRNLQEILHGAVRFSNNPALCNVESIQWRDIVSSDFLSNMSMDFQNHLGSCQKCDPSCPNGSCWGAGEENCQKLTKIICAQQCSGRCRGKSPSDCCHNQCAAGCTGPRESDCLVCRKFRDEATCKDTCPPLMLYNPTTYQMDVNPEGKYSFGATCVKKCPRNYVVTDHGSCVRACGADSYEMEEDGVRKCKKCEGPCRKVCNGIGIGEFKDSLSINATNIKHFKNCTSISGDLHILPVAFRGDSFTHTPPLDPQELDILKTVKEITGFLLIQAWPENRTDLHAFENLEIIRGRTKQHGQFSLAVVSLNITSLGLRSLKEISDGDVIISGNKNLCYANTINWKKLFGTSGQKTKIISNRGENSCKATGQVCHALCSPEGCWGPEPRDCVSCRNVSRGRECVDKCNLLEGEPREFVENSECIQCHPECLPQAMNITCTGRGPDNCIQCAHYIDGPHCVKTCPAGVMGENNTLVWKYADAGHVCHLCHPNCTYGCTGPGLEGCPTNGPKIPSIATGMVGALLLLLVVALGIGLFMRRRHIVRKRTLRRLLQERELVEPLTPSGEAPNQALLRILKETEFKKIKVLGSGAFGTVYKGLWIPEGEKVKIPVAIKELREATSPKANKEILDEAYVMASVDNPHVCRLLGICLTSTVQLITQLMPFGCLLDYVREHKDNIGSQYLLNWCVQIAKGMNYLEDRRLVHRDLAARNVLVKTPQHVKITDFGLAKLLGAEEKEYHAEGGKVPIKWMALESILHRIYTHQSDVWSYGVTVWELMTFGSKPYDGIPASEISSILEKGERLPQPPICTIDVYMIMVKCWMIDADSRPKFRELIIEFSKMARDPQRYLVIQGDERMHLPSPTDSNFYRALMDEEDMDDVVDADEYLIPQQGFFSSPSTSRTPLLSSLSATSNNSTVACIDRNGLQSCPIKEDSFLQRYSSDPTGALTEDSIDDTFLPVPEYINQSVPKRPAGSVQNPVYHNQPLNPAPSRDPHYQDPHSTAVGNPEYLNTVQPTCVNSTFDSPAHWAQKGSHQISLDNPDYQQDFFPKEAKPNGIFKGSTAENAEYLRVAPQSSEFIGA
The test can be described thus: EGFR bioassay (bio EGF). The format is biochemical.

Molecules are shown by their SMILES.

T1 sequence (P04626 720-987 limits assumed): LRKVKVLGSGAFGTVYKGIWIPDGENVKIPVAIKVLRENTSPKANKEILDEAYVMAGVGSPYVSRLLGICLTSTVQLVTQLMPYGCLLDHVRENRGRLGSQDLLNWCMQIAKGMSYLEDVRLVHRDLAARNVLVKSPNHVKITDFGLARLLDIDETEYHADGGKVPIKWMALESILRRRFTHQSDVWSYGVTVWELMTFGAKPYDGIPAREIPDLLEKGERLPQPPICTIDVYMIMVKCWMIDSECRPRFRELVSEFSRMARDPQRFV
T3 sequence (P09619 33-1106): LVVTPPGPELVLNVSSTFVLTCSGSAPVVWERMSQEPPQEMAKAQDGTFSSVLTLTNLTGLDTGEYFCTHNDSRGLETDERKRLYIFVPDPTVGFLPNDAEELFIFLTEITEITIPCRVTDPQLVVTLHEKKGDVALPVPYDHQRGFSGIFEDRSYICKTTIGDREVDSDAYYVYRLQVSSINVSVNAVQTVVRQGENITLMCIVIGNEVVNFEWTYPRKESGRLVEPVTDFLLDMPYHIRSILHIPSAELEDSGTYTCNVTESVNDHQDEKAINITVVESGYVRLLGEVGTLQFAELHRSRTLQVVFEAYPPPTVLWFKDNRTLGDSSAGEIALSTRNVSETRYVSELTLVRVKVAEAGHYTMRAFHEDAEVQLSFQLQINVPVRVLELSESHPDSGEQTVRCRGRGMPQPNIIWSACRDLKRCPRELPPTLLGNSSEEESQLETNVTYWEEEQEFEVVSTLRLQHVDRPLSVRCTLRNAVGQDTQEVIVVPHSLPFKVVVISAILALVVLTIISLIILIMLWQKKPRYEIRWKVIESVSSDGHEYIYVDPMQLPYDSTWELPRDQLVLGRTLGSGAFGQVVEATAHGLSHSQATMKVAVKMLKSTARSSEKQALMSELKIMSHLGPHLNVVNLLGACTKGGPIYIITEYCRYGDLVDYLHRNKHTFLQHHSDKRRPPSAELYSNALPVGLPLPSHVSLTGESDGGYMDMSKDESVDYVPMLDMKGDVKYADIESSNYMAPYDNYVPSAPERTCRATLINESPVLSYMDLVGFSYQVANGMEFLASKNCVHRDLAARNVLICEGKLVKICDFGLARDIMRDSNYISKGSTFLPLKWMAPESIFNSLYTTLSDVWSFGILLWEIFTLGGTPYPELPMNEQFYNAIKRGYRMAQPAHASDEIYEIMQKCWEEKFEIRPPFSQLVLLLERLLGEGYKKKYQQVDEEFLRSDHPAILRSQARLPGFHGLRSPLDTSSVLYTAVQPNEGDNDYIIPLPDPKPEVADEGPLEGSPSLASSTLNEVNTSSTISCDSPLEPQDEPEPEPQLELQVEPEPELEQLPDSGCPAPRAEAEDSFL

Regarding `CC(=O)c1c(/C=C2\C(=O)Nc3ccc(Br)cc32)[nH]c(C(=O)NCCCO)c1C` [Example 32, 4-Acetyl-5-(5-bromo-2-oxo-1,2-dihydroindol-3-ylidenemethyl)-3-methyl-1H-pyrrole-2-carboxylic acid (3-hydroxy-propyl)amide], the IC50 in test [1] was over 100 µM; in test [2], 45.7 µM; in test [3] it was 5.94 µM; in test [4] it was over 100 µM.

In the case of `CCN(CC)CCNC(=O)c1c(C)[nH]c(/C=C2\C(=O)Nc3cc(-c4cc(Cl)cc(Cl)c4)ccc32)c1C` [Example 62, 5-[6-(3,5-Dichloro-phenyl)-2-oxo-1,2-dihydroindol-3-ylidenemethyl]-2,4-dimethyl-1H-pyrrole-3-carboxylic acid (2-diethylaminoethyl)amide], the values for the IC50 in test [2] and in test [3] were 8 µM and 8.32 µM, respectively.

Consider `COc1ccc2c(c1)/C(=C/c1[nH]c(C(=O)NCCCN3CCCC3)c(C)c1C(=O)c1ccccc1)C(=O)N2` [Example 27, 4-Benzoyl-5-(5-methoxy-2-oxo-1,2-dihydroindol-3-ylidenemethyl)-3-methyl-1H-pyrrole-2-carboxylic acid (3-pyrrolidin-1-ylpropyl)amide], for which the figures for the IC50 in test [1], in test [3] and in test [4] were 3.91 µM, over 100 µM and 26.5 µM, respectively.

Turning to `Cc1c(C(=O)NCCCN2CCCC2)[nH]c(/C=C2\C(=O)Nc3cc(-c4ccccc4)ccc32)c1C(=O)c1ccccc1` [Example 25, 4-Benzoyl-3-methyl-5-(2-oxo-6-phenyl-1,2-dihydroindol-3-ylidenemethyl)-1H-pyrrole-2-carboxylic acid (3-pyrrolidin-1-ylpropyl)amide], the results for the IC50 in test [1], in test [2] and in test [4] were 7.9 µM, 12.6 µM and 23.5 µM, respectively.

Take `COc1ccc2c(c1)NC(=O)/C2=C\c1[nH]c(C(=O)NCCCN2CCCC2)c(C)c1C(=O)c1ccccc1` [Example 26, 4-Benzoyl-5-(6-methoxy-2-oxo-1,2-dihydroindol-3-ylidenemethyl)-3-methyl-1H-pyrrole-2-carboxylic acid (3-pyrrolidin-1-ylpropyl)amide]: the half-maximal inhibitory concentration (IC50) turned out to be 10 µM in test [1], 16 µM in test [2], 66.9 µM in test [3] and 34.7 µM in test [4].

Consider `Cc1c(C(=O)NCCCN2CCCC2)[nH]c(/C=C2\C(=O)Nc3ccc(F)cc32)c1C(=O)c1ccccc1` [Example 28, 4-Benzoyl-5-(5-fluoro-2-oxo-1,2-dihydroindol-3-ylidenemethyl)-3-methyl-1H-pyrrole-2-carboxylic acid (3-pyrrolidin-1-ylpropyl)amide], for which the IC50 in test [1] was 2.67 µM; in test [2], 4.5 µM; in test [3] it was 71.3 µM; in test [4], 53.7 µM.

In the case of `CCN(CC)CCNC(=O)c1c(C)[nH]c(/C=C2\C(=O)Nc3cc(-c4cccnc4)ccc32)c1C` [Example 63, 2,4-Dimethyl-5-(2-oxo-6-pyridin-3-yl-1,2-dihydroindol-3-ylidenemethyl)-1H-pyrrole-3-carboxylic acid (2-diethylaminoethyl)amide], the results for the IC50 in test [2] and in test [4] were 0.21 µM and 8.59 µM, respectively.

As for `CCCCc1ccc(-c2ccc3c(c2)NC(=O)/C3=C\c2[nH]c(C)c(C(=O)NCCN3CCCC3)c2C)cc1` [Example 75, 5-[6-(4-Butyl-phenyl)-2-oxo-1,2-dihydroindol-3-ylidenemethyl]-2,4-dimethyl-1H-pyrrole-3-carboxylic acid (2-pyrrolidin-1-yl-ethyl)amide], the IC50 in test [1] was over 100 µM; in test [2] it was 2.7 µM; in test [3], 61.6 µM; in test [4], over 100 µM.

Consider `CCN(CC)CCNC(=O)c1c(C)[nH]c(/C=C2\C(=O)Nc3cc(C(=O)O)ccc32)c1C` [Example 81, 3-[4-(2-diethylaminoethylcarbamoyl)-3,5-dimethyl-1H-pyrrol-2-ylmethylene]-2-oxo-2,3-dihydro-1H-indole-6-carboxylic acid], for which the 50% inhibitory concentration (IC50) in test [1] was over 100 µM; in test [2], 0.21 µM; in test [3], 0.18 µM; in test [4] it was over 100 µM.

`CCc1ccc(-c2ccc3c(c2)NC(=O)/C3=C\c2[nH]c(C)c(C(=O)NCCN3CCCC3)c2C)cc1` [Example 77, 5-[6-(4-Ethyl-phenyl)-2-oxo-1,2-dihydroindol-3-ylidenemethyl]-2,4-dimethyl-1H-pyrrole-3-carboxylic acid (2-pyrrolidin-1-yl-ethyl)amide]: the IC50 is over 100 µM in test [1], 0.49 µM in test [2], 25 µM in test [3] and over 100 µM in test [4].

With `CCN(CC)CCCNC(=O)c1[nH]c(/C=C2\C(=O)Nc3ccc(Br)cc32)cc1C` [Example 13, 5-(5-Bromo-2-oxo-1,2-dihydroindol-3-ylidenemethyl)-3-methyl-1H-pyrrole-2-carboxylic acid (3-diethylaminopropyl)amide], the IC50 is 2.66 µM in test [1], over 20 µM in test [2], 81.9 µM in test [3] and 8.17 µM in test [4].

For the molecule `CCN(CC)CCCNC(=O)c1[nH]c(/C=C2\C(=O)Nc3ccc(Br)cc32)c(C(C)=O)c1C` [Example 29, 4-Acetyl-5-(5-bromo-2-oxo-1,2-dihydroindol-3-ylidenemethyl)-3-methyl-1H-pyrrole-2-carboxylic acid (3-diethylaminopropyl)amide], the IC50 in test [1] was 3.98 µM; in test [2], 10.1 µM; in test [3], over 100 µM; in test [4] it was 26.7 µM.

Take `CC(=O)c1c(/C=C2\C(=O)Nc3ccc(Br)cc32)[nH]c(C(=O)NCCN2CCOCC2)c1C` [Example 34, 4-Acetyl-5-(5-bromo-2-oxo-1,2-dihydroindol-3-ylidenemethyl)-3-methyl-1H-pyrrole-2-carboxylic acid (2-morpholin-4-yl-ethyl)amide]: the IC50 in test [1] was over 100 µM; in test [2], over 50 µM; in test [3], over 100 µM; in test [4], over 100 µM.

`Cc1[nH]c(/C=C2\C(=O)Nc3cc(-c4cccc(C(C)C)c4)ccc32)c(C)c1C(=O)NCCN1CCCC1` [Example 79, 5-[6-(3-Isopropyl-phenyl)-2-oxo-1,2-dihydroindol-3-ylidenemethyl]-2,4-dimethyl-1H-pyrrole-3-carboxylic acid (2-pyrrolidin-1-yl-ethyl)amide]: the IC50 is over 100 µM in test [1], 1.49 µM in test [2], over 100 µM in test [3] and 27.4 µM in test [4].

`CCN(CC)CCCNC(=O)c1[nH]c(/C=C2\C(=O)Nc3ccc(OC)cc32)cc1C` [Example 15, 5-(5-Methoxy-2-oxo-1,2-dihydroindol-3-ylidenemethyl)-3-methyl-1H-pyrrole-2-carboxylic acid (3-diethylaminopropyl)amide]: the IC50 in test [1] stood at 98.6 µM.

Turning to `CCN(CC)CCCNC(=O)c1[nH]c(/C=C2\C(=O)Nc3cc(OC)ccc32)cc1C` [Example 16, 5-(6-Methoxy-2-oxo-1,2-dihydroindol-3-ylidenemethyl)-3-methyl-1H-pyrrole-2-carboxylic acid (3-diethylaminopropyl)amide], the IC50 turned out to be 23.3 µM in test [1] and 98.1 µM in test [3].

`Cc1[nH]c(/C=C2\C(=O)Nc3ccc(-c4ccccc4)cc32)c(C)c1C(=O)NCCCn1ccnc1` [Example 58, 2,4-Dimethyl-5-(2-oxo-5-phenyl-1,2-dihydroindol-3-ylidenemethyl)-1H-pyrrole-3-carboxylic acid (3-imidazol-1-ylpropyl)amide] gave an IC50 in test [3] of 21.1 µM.

As to `Cc1[nH]c(/C=C2\C(=O)Nc3ccc(Br)cc32)c(C)c1C(=O)NCc1ccncc1` [Example 74, 5-(5-Bromo-2-oxo-1,2-dihydroindol-3-ylidenemethyl)-2,4-dimethyl-1H-pyrrole-3-carboxylic acid (pyridin-4-ylmethyl)amide], the IC50 in test [1] was over 100 µM; in test [2], 1.2 µM; in test [3], 0.09 µM; in test [4] it was 46.8 µM.

`CC(=O)c1c(/C=C2\C(=O)Nc3ccc(Br)cc32)[nH]c(C(=O)NCCCN2CCCC2)c1C` [Example 30, 4-Acetyl-5-(5-bromo-2-oxo-1,2-dihydroindol-3-ylidenemethyl)-3-methyl-1H-pyrrole-2-carboxylic acid (3-pyrrolidin-1-ylpropyl)amide]: the IC50 is 4.1 µM in test [1], 9.4 µM in test [2], over 100 µM in test [3] and 18.7 µM in test [4].

As for `Cc1c(C(=O)NCCCN2CCOCC2)[nH]c(/C=C2\C(=O)Nc3ccc(Br)cc32)c1C(=O)c1ccccc1` [Example 22, 4-Benzoyl-5-(5-bromo-2-oxo-1,2-dihydroindol-3-ylidenemethyl)-3-methyl-1H-pyrrole-2-carboxylic acid (3-morpholin-4-ylpropyl)amide], the IC50 in test [1] stood at 87.7 µM.

As for `CC(=O)c1c(/C=C2\C(=O)Nc3ccc(Br)cc32)[nH]c(C(=O)NCCCN2CCOCC2)c1C` [Example 31, 4-Acetyl-5-(5-bromo-2-oxo-1,2-dihydroindol-3-ylidenemethyl)-3-methyl-1H-pyrrole-2-carboxylic acid (3-morpholin-4-ylpropyl)amide], the IC50 in test [1] was found to be 47.2 µM; in test [4], 9.83 µM.

Take `Cc1c(C(=O)NCCCN2CCCC2)[nH]c(/C=C2\C(=O)Nc3ccc(Br)cc32)c1C(=O)c1ccccc1` [Example 24, 4-Benzoyl-5-(5-bromo-2-oxo-1,2-dihydroindol-3-ylidenemethyl)-3-methyl-1H-pyrrole-2-carboxylic acid (3-pyrrolidin-1-ylpropyl)amide]: the half-inhibitory concentration (IC50) was 5.31 µM in test [1] and 16.8 µM in test [4].

Consider `CCN(CC)CCNC(=O)c1c(C(C)C)[nH]c(/C=C2\C(=O)Nc3ccc(Br)cc32)c1C(C)C` [Example 71, 5-(5-Bromo-2-oxo-1,2-dihydroindol-3-ylidenemethyl)-2,4-diisopropyl-1H-pyrrole-3-carboxylic acid (2-diethylaminoethyl)amide], for which the IC50 is 9.91 µM in test [1], 15.2 µM in test [2] and 22.5 µM in test [3].

As usually defined, the IC50 is the midpoint of a concentration-inhibition curve.

These data come from US6573293B2, “Pyrrole substituted 2-indolinone protein kinase inhibitors” (Sugen, Inc., priority 2000, dated 2003).
